Measured values published in PMC8778818, “Synthesis, Structural Characterization and Anticancer Activity of New 5-Trifluoromethyl-2-thioxo-thiazolo[4,5-d]pyrimidine Derivatives” (Pharmaceuticals, 2022).
Where “and” joins values, the source holds several entries; their conditions need not be identical. Equal values may be shown once.

Legend:
SF-539 = experiment: NCI-60 screen, CNS Cancer SF-539; format: cell-based, human
MALME-3M = experiment: NCI-60 screen, Melanoma MALME-3M; format: cell-based, human
K-562 = experiment: NCI-60 screen, Leukemia K-562; format: cell-based, human
TK-10 = experiment: NCI-60 screen, Renal Cancer TK-10; format: cell-based, human
U251 = experiment: NCI-60 screen, CNS Cancer U251; format: cell-based, human; conditions: U251, five doses 10^−4–10^−8 M
OVCAR-5 = experiment: NCI-60 screen, Ovarian Cancer OVCAR-5; format: cell-based, human
CHO-K1 = experiment: MTT cell viability assay, CHO-K1; format: cell-based, Chinese Hamster; conditions: Cricetulus griseus; CHO-K1 normal cells, MTT, 72 h, mean ± SD
Method: (§1) Twelve compounds (2a-e, 3a-d and 4a-c) at a concentration range of 50–5000 μM were tested for their antiproliferative potential against four human cancer cell lines (A375—melanotic melanoma, C32—amelanotic melanoma, DU145—prostate cancer androgen-independent, MCF-7/WT—breast adenocarcinoma) and two normal cell lines: Chinese Hamster Ovary (CHO-K1) and immortalized human keratinocytes from histologically normal skin (HaCaT).
(§2) To determine the antiproliferative activity of newly synthesized compounds, the following cell lines were used: human melanotic melanoma cell line (A375), human amelanotic melanoma cell line (C32), human breast adenocarcinoma cell line (MCF-7/WT), human prostate cancer androgen-independent (DU145) and two normal cell lines: hamster ovarian (CHO-K1) and immortalized human keratinocytes from histologically normal skin (HaCaT). The cells were obtained from the cell line bank of the Department of Molecular and Cellular Biology, Wroclaw Medical University. A375, C32, MCF-7/WT, DU145 and HaCaT cells were grown in a monolayer cultured in Dulbecco’s Modified Eagle’s Medium (DMEM, Sigma-Aldrich, Poznań, Poland), supplemented with 10% of fetal bovine serum (FBS, Gibco, Paisley, UK) and 1% of antibiotics (penicillin/streptomycin, Sigma-Aldrich) and CHO-K1 were grown in HAM’s F-12 medium (Sigma-Aldrich), supplemented with 10% fetal bovine serum (FBS, Gibco) and 1% of antibiotics (penicillin/streptomycin, Sigma-Aldrich). Cell lines were cultured in the polystyrene flasks 25 or 75 cm^2 (Thermo Fisher Scientific, Waltham, MA, USA), which were stored in 37 °C and 5% CO2 in a humidified 95% atmosphere (SteriCult, Thermo Scientific, Alab). The cell medium was exchanged twice a week. The exponentially growing cells were used throughout the experiments. The cells were rinsed with phosphate-buffered saline (PBS, Sigma-Aldrich) and trypsinized by Trypsin-EDTA 0.25% solution (Sigma-Aldrich).
(§3) The influence of the compounds was performed in a monolayer culture on cancer and normal cells. Compounds were initially dissolved in DMSO; further dilutions of the compound were performed in Dulbecco’s Modified Eagle’s Medium supplemented with 10% FBS. Compounds were tested in a 50–5000 µM concentration range. In the in vitro experiments, the concentrations of DMSO in the final solution of the compounds were used 0.05%; 0.1%; 0.5%; 1%, respectively.
(§4) Cell viability was determined using the MTT colorimetric assay. All cell lines were seeded into 96-well plates to a density of 3 × 10^4 cells/well. After 24 h, the culture supernatants were removed and appropriate dilutions of compounds in the culture medium (200 µL/well) were added to the cells’ monolayer cultures and incubated for an additional 72 h. After 72 h of exposition to the compounds and the removal of the culture medium, cell viability was determined by reducing the yellow dye 3-(4,5-dimethyl-2-thiazol)-2,5-diphenyl-2H-tetrazolium bromide (MTT assay, Sigma Saint Louis, MO, USA; In Vitro Toxicology Assay) to a blue formazan product. The absorbance of the resulting solutions in three duplicate experiments was measured at the wavelength of 560 nm in a microplate reader (EnSpire, Perkin Elmer, Kraków, Poland). MTT assay is a colorimetric method that estimates the rate of metabolism in viable cells. Absorbance is directly proportional to the number of viable cells. All the experiments were performed three times and the mean absorbance values were calculated. The methodology for the evaluation of the growth of human cancer and normal cells was described previously. The cell viability in each group was expressed as a percentage of control (untreated) cells.

A498 = experiment: NCI-60 screen, Renal Cancer A498; format: cell-based, human
A549/ATCC = experiment: NCI-60 screen, Non-Small Cell Lung Cancer A549/ATCC; format: cell-based, human
HCT-116 = experiment: NCI-60 screen, Colon Cancer HCT-116; format: cell-based, human
DU-145 = experiment: NCI-60 screen, Prostate C. DU-145; format: cell-based
SK-MEL-28 = experiment: NCI-60 screen, Melanoma SK-MEL-28; format: cell-based
[1] = test system: A375, C32, DU145, MCF-7/WT, CHO-K1 and HaCaT cell lines; experiment: MTT cell viability assay, all six cell lines; format: cell-based; conditions: mean over the six cell lines; read-out: Mean A: the mean IC50 for the given compound
Method: as §1, §2, §3, §4

LOX IMVI = experiment: NCI-60 screen, Melanoma LOX IMVI; format: cell-based, human
HCC-2998 = experiment: NCI-60 screen, Colon Cancer HCC-2998; format: cell-based, human
HL-60(TB) = experiment: NCI-60 screen, Leukemia HL-60(TB); format: cell-based, human
T-47D = experiment: NCI-60 screen, Breast Cancer T-47D; format: cell-based
NCI-H522 = experiment: NCI-60 screen, Non-Small Cell Lung Cancer NCI-H522; format: cell-based, human
A375 = experiment: MTT cell viability assay, A375; format: cell-based, human; conditions: Homo sapiens
Method: as §1, §2, §3, §4

DU145 = experiment: MTT cell viability assay, DU145; format: cell-based, human; conditions: Homo sapiens, DU-145; DU145, MTT, 72 h, mean ± SD
Method: as §1, §2, §3, §4

UO-31 = experiment: NCI-60 screen, Renal Cancer UO-31; format: cell-based
[2] = Homo sapiens, five doses 10^−4–10^−8 M
[3] = Homo sapiens, HCC-2998, five doses 10^−4–10^−8 M
[4] = Homo sapiens, NCI-H522, five doses 10^−4–10^−8 M

FC(F)(F)c1nc(Cl)c2sc(=S)n(-c3ccccc3)c2n1 [Compound 3b, 7-chloro-3-phenyl-5-(trifluoromethyl)[1, 3]thiazolo[4,5-d]pyrimidine-2(3H)-thione]
GI50 (SF-539; Homo sapiens, SF-539, five doses 10^−4–10^−8 M): 1660 nM | CC50 (SF-539; Homo sapiens, SF-539, five doses 10^−4–10^−8 M, read-out: log LC50 (the source's name) (converted)): 5.89 µM | Growth of Cells (%) (SF-539; SF-539, 10^−5 M one dose): 75.80% | log TGI (SF-539; SF-539, five doses 10^−4–10^−8 M): −5.50 log M | Growth of Cells (%) (MALME-3M; 10^−5 M one dose): 40.72% | GI50 (MALME-3M; [2]): 2290 nM | LC50 (concentration causing 50% cell kill) (MALME-3M; [2]): 8.13 µM | log TGI (MALME-3M; five doses 10^−4–10^−8 M): −5.37 log M | GI50 (K-562; Homo sapiens, K562, K-562, five doses 10^−4–10^−8 M): 692 nM | CC50 (K-562; Homo sapiens, K562, K-562, five doses 10^−4–10^−8 M, read-out: log LC50 (the source's name) (converted)): > 100 µM | Growth of Cells (%) (K-562; K-562, 10^−5 M one dose): 33.07% | log TGI (K-562; K-562, five doses 10^−4–10^−8 M): −5.36 log M | GI50 (TK-10; Homo sapiens, TK-10, five doses 10^−4–10^−8 M): 2000 nM | CC50 (TK-10; Homo sapiens, TK-10, five doses 10^−4–10^−8 M, read-out: log LC50 (the source's name) (converted)): 8.32 µM | Growth of Cells (%) (TK-10; TK-10, 10^−5 M one dose): 51.24% | log TGI (TK-10; TK-10, five doses 10^−4–10^−8 M): −5.39 log M | GI50 (U251; Homo sapiens, U-251): 1740 nM | LC50 (lethal concentration 50%) (U251; Homo sapiens, U-251): 5.75 µM | log TGI (U251): −5.50 log M | GI50 (OVCAR-5; Homo sapiens, OVCAR-5, five doses 10^−4–10^−8 M): 8.71 µM | CC50 (OVCAR-5; Homo sapiens, OVCAR-5, five doses 10^−4–10^−8 M, read-out: log LC50 (the source's name) (converted)): 64.6 µM | Growth of Cells (%) (OVCAR-5; OVCAR-5, 10^−5 M one dose): 86.56% | log TGI (OVCAR-5; OVCAR-5, five doses 10^−4–10^−8 M): −4.60 log M | IC50 (CHO-K1): 75.5 ± 1.6 µM | Growth of Cells (%) (A498; A498, 10^−5 M one dose): 91.46% | log TGI (A498; A498, five doses 10^−4–10^−8 M): −4.57 log M | GI50 (A498; Homo sapiens, A498, five doses 10^−4–10^−8 M): 13.5 µM | CC50 (A498; Homo sapiens, A498, five doses 10^−4–10^−8 M, read-out: log LC50 (the source's name) (converted)): 52.5 µM | Growth of Cells (%) (A549/ATCC; 10^−5 M one dose): 91.16% | GI50 (A549/ATCC; [2]): 7.59 µM | LC50 (A549/ATCC; [2]): 53.7 µM | log TGI (A549/ATCC; five doses 10^−4–10^−8 M): −4.66 log M | Growth of Cells (%) (HCT-116; HCT-116, 10^−5 M one dose): −27.21% | log TGI (HCT-116; HCT-116, five doses 10^−4–10^−8 M): −5.47 log M | GI50 (HCT-116; Homo sapiens, HCT-116, five doses 10^−4–10^−8 M): 1740 nM | CC50 (HCT-116; Homo sapiens, HCT-116, five doses 10^−4–10^−8 M, read-out: log LC50 (the source's name) (converted)): 6.61 µM | Growth of Cells (%) (DU-145; DU-145, 10^−5 M one dose): 9.04% | log TGI (DU-145; DU-145, five doses 10^−4–10^−8 M): −5.46 log M | GI50 (DU-145; Homo sapiens, DU-145, read-out: log GI50 (converted)): 1860 nM | CC50 (DU-145; Homo sapiens, DU-145, five doses 10^−4–10^−8 M, read-out: log LC50 (the source's name) (converted)): 6.46 µM | GI50 (SK-MEL-28; Homo sapiens, SK-MEL-28, five doses 10^−4–10^−8 M): 1950 nM | CC50 (SK-MEL-28; Homo sapiens, SK-MEL-28, five doses 10^−4–10^−8 M, read-out: log LC50 (the source's name) (converted)): 6.46 µM | Growth of Cells (%) (SK-MEL-28; SK-MEL-28, 10^−5 M one dose): −62.53% | log TGI (SK-MEL-28; SK-MEL-28, five doses 10^−4–10^−8 M): −5.45 log M | IC50 [1]: 43.8 µM | Growth of Cells (%) (LOX IMVI; 10^−5 M one dose): 3.11% | GI50 (LOX IMVI; [2]): 1780 nM | LC50 (LOX IMVI; [2]): 6.17 µM | log TGI (LOX IMVI; five doses 10^−4–10^−8 M): −5.48 log M | Growth of Cells (%) (HCC-2998; HCC-2998, 10^−5 M one dose): −26.98% and −26.89% | log TGI (HCC-2998; HCC-2998, five doses 10^−4–10^−8 M): −5.31 log M | GI50 (HCC-2998; [3]): 2240 nM | LC50 (HCC-2998; [3]): 12.9 µM | Growth of Cells (%) (HL-60(TB); 10^−5 M one dose): −41.20% | GI50 (HL-60(TB); [2]): 1550 nM | log TGI (HL-60(TB); five doses 10^−4–10^−8 M): −5.41 log M | GI50 (T-47D; Homo sapiens, T47D, read-out: log GI50 (converted)): 1860 nM | CC50 (T-47D; Homo sapiens, T47D, T-47D, five doses 10^−4–10^−8 M, read-out: log LC50 (the source's name) (converted)): 66.1 µM | Growth of Cells (%) (T-47D; T-47D, 10^−5 M one dose): −35.57% | log TGI (T-47D; T-47D, five doses 10^−4–10^−8 M): −5.32 log M | GI50 (NCI-H522; [4]): 204 nM | LC50 (NCI-H522; [4]): 1510 nM | Growth of Cells (%) (NCI-H522; NCI-H522, 10^−5 M one dose): −67.57% | log TGI (NCI-H522; NCI-H522, five doses 10^−4–10^−8 M): −6.33 log M | IC50 (A375; A-375, 72 h, A375, MTT, mean ± SD): 25.4 ± 0.5 µM | viability at 50 µM (A375; A-375, A375 melanotic melanoma, 50 µM, 72 h): 20% | IC50 (DU145): 55.1 ± 1.1 µM | GI50 (UO-31; Homo sapiens, UO-31, read-out: log GI50 (converted)): 1700 nM | CC50 (UO-31; Homo sapiens, UO-31, five doses 10^−4–10^−8 M, read-out: log LC50 (the source's name) (converted)): 6.03 µM | Growth of Cells (%) (UO-31; UO-31, 10^−5 M one dose): −82.97% | log TGI (UO-31; UO-31, five doses 10^−4–10^−8 M): −5.49 log M
